Measured values from patent US9546164B2 (GENENTECH, INC., priority 2013, dated 2017).

Target: hNav1.7 (Homo sapiens (Human), UniProt Q15858)
Assay: Tritiated sulfonamide competitive binding to membranes from cells expressing hNav1.7 and the β1 subunit;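 note: Filter-bound radioactivity counted by liquid scintillation, nonspecific binding defined with excess unlabelled ligand, IC50 fitted to percent inhibition of specific binding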
Conditions: read-out: Ligand Binding Assay; 100 pM [3H]compound, membranes with hNav1.7 and β1 subunit, 18 h, room temperature

Sequence of hNav1.7 (Q15858 other isoform, or with tags, fused parts or gaps): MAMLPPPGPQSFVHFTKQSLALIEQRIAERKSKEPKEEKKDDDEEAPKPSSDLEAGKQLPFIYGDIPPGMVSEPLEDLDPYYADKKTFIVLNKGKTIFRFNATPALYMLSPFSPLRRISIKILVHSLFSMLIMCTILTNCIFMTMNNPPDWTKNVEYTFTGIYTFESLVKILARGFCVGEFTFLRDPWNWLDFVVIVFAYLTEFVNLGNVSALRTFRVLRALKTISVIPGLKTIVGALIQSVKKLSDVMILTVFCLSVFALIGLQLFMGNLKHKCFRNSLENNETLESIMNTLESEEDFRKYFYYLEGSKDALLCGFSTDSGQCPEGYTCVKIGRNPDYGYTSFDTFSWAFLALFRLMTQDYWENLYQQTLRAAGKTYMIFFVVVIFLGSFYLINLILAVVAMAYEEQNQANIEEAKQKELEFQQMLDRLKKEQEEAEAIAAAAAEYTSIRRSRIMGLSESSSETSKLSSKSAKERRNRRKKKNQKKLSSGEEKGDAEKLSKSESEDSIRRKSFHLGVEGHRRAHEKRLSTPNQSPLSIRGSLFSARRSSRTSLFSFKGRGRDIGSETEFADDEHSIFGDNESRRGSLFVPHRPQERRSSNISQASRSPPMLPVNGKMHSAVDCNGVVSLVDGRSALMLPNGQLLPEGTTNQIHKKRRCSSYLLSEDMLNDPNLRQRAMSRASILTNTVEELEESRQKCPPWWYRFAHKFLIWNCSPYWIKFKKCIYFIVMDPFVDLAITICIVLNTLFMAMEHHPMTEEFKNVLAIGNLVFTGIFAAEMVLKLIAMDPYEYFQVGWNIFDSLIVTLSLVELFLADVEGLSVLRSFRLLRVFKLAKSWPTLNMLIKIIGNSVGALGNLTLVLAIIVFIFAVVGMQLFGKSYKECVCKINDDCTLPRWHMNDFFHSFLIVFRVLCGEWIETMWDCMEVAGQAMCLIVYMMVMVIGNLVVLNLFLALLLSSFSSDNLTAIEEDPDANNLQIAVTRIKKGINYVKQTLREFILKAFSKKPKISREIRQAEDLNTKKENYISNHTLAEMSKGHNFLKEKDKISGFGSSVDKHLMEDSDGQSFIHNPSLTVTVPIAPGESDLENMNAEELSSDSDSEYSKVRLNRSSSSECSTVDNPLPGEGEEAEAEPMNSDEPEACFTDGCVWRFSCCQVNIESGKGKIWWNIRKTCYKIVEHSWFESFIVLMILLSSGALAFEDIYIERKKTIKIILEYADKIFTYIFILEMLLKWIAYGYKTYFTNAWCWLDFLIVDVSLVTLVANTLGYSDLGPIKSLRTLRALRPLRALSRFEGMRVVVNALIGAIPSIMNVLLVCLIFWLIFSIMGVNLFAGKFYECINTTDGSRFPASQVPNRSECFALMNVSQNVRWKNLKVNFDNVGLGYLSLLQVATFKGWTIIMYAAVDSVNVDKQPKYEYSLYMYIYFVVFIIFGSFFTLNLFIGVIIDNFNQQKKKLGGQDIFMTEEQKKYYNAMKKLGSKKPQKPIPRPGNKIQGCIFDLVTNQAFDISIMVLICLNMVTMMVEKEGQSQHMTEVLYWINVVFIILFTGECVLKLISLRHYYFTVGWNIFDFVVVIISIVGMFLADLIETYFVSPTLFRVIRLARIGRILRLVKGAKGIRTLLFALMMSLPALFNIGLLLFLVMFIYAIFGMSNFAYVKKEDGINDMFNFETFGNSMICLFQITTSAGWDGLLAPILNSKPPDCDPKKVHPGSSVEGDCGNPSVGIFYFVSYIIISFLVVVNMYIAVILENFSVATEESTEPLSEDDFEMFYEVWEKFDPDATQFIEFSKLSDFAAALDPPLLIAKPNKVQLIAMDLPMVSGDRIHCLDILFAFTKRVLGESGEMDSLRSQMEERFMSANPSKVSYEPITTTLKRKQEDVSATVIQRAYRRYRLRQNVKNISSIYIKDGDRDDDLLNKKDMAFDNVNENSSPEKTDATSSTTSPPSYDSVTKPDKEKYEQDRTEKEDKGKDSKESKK
Sequence of hNav1.7 (Q07699 19-218 partner): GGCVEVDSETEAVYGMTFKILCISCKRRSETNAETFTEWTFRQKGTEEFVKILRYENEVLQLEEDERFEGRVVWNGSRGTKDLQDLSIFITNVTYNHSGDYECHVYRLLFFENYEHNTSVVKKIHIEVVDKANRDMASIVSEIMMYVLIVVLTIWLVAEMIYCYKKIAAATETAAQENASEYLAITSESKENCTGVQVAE

SMILES | IC50
CS(=O)(=O)NC(=O)c1cc(C2CC2)c(OCC2(F)CN(Cc3ccccc3)C2)cc1F [Example 66, 4-((1-benzyl-3-fluoroazetidin-3-yl)methoxy)-5-cyclopropyl-2-fluoro-N-(methylsulfonyl)benzamide] | 91 nM
CC1(COc2cc(F)c(C(=O)NS(C)(=O)=O)cc2C2CC2)CN(C(c2ccccc2)c2ccccc2)C1 [Example 68, 4-((1-benzhydryl-3-methylazetidin-3-yl)methoxy)-5-cyclopropyl-2-fluoro-N-(methylsulfonyl)benzamide] | 6.4 nM
CCS(=O)(=O)NC(=O)c1cc(C2CC2)c(OCC2(C)CN(C(c3ccccc3)c3ccccc3)C2)cc1F [Example 69, 4-((1-benzhydryl-3-methylazetidin-3-yl)methoxy)-5-cyclopropyl-N-(ethylsulfonyl)-2-fluorobenzamide] | 6.1 nM
CC1(COc2cc(F)c(C(=O)NS(=O)(=O)C3CC3)cc2C2CC2)CN(C(c2ccccc2)c2ccccc2)C1 [Example 70, 4-((1-benzhydryl-3-methylazetidin-3-yl)methoxy)-5-cyclopropyl-N-(cyclopropylsulfonyl)-2-fluorobenzamide] | 6 nM
CC(C)(C)OC(=O)N1CC(COc2cc(F)c(C(=O)NS(C)(=O)=O)cc2C2CC2)C1 [Example 72, tert-butyl 3-((2-cyclopropyl-5-fluoro-4-((methylsulfonyl)carbamoyl)phenoxy)methyl)azetidine-1-carboxylate] | 750 nM
CS(=O)(=O)NC(=O)c1cc(C2CC2)c(OCC2CN(Cc3cccc(F)c3)C2)cc1F [Example 73, 5-cyclopropyl-2-fluoro-4-((1-(3-fluorobenzyl)azetidin-3-yl)methoxy)-N-(methylsulfonyl)benzamide] | 1300 nM
CS(=O)(=O)NC(=O)c1cc(C2CC2)c(OCC2CN(Cc3ccccc3)C2)cc1F [Example 74, -((1-benzylazetidin-3-yl)methoxy)-5-cyclopropyl-2-fluoro-N-(methylsulfonyl)benzamide] | 3600 nM
CS(=O)(=O)NC(=O)c1cc(C2CC2)c(OCC2CN(Cc3cc(F)cc(Cl)c3)C2)cc1F [Example 75, 4-((1-(3-chloro-5-fluorobenzyl)azetidin-3-yl)methoxy)-5-cyclopropyl-2-fluoro-N-(methylsulfonyl)benzamide] | 74 nM
CC1(COc2cc(F)c(C(=O)NS(C)(=O)=O)cc2C2CC2)CN(Cc2cc(Cl)cc(Cl)c2)C1 [Example 77] | 6.4 nM
CS(=O)(=O)NC(=O)c1cc(C2CC2)c(OCC2CN(C(c3ccccc3)c3ccc(Cl)c(Cl)c3)C2)cc1F (stereo not shown) [Example 80, 5-Cyclopropyl-4-((1-((3,4-dichlorophenyl)(phenyl)methyl)azetidin-3-yl)methoxy)-2-fluoro-N-(methylsulfonyl)benzamide] | 4.05 nM
CC(C)Oc1ncc(CN2CC(COc3cc(F)c(C(=O)NS(C)(=O)=O)cc3C3CC3)C2)cc1Cl [Example 83, 4-((1-((5-Chloro-6-isopropoxypyridin-3-yl)methyl)azetidin-3-yl)methoxy)-5-cyclopropyl-2-fluoro-N-(methylsulfonyl)benzamide] | 59 nM
C[C@@H](c1ccccc1)N1CC(COc2cc(F)c(C(=O)NS(C)(=O)=O)cc2C2CC2)C1 [Example 84, (S)-5-Cyclopropyl-2-fluoro-N-(methylsulfonyl)-4-((1-(1-phenylethyl)azetidin-3-yl)methoxy)benzamide] | 1240 nM
CC(c1cc(F)cc(F)c1)N1CC(COc2cc(F)c(C(=O)NS(C)(=O)=O)cc2C2CC2)C1 (stereo not shown) [Example 86, 5-Cyclopropyl-4-((1-(1-(3,5-difluorophenyl)ethyl)azetidin-3-yl)methoxy)-2-fluoro-N-(methylsulfonyl)benzamide] | 49.5 nM
CS(=O)(=O)NC(=O)c1cc(C2CC2)c(OCC2CCN(Cc3ccccc3)CC2)cc1F [Example 87, 4-((1-Benzylpiperidin-4-yl)methoxy)-5-cyclopropyl-2-fluoro-N-(methylsulfonyl)benzamide] | 278 nM
COCC(c1cc(Cl)cc(Cl)c1)N1CCC(COc2cc(F)c(C(=O)NS(C)(=O)=O)cc2C2CC2)CC1 (stereo not shown) [Example 90, 5-Cyclopropyl-4-((1-(1-(3,5-dichlorophenyl)-2-methoxyethyl)piperidin-4-yl)methoxy)-2-fluoro-N-(methylsulfonyl)benzamide] | 2.87 nM
COCC(c1cc(Cl)cc(Cl)c1)N1CC(COc2cc(F)c(C(=O)NS(C)(=O)=O)cc2C2CC2)C1 (stereo not shown) [Example 91, 5-Cyclopropyl-4-((1-(1-(3,5-dichlorophenyl)-2-methoxyethyl)azetidin-3-yl)methoxy)-2-fluoro-N-(methylsulfonyl)benzamide] | 14.7 nM
COc1ccc(CN2CCC(COc3cc(F)c(C(=O)NS(C)(=O)=O)cc3C3CC3)CC2)cc1F [Example 94, 5-Cyclopropyl-2-fluoro-4-((1-(3-fluoro-4-methoxybenzyl)piperidin-4-yl)methoxy)-N-(methylsulfonyl)benzamide] | 150 nM
CS(=O)(=O)NC(=O)c1cc(C2CC2)c(OCC2CN([C@H](c3ccccc3)c3ccc(S(C)(=O)=O)cc3)C2)cc1F [Example 96, (R)-5-Cyclopropyl-2-fluoro-N-(methylsulfonyl)-4-((1-((4-(methylsulfonyl)phenyl)(phenyl)methyl)azetidin-3-yl)methoxy)benzamide] | 429 nM
CC(c1cc(Cl)cc(Cl)c1)N1CCC(COc2cc(F)c(C(=O)NS(C)(=O)=O)cc2C2CC2)CC1 (stereo not shown) [Example 97, 5-Cyclopropyl-4-((1-(1-(3,5-dichlorophenyl)ethyl)piperidin-4-yl)methoxy)-2-fluoro-N-(methylsulfonyl)benzamide] | 2.69 nM
CC(c1cc(Cl)cc(Cl)c1)N1CC(COc2cc(F)c(C(=O)NS(C)(=O)=O)cc2C2CC2)C1 (stereo not shown) [Example 98, 5-Cyclopropyl-4-((1-(1-(3,5-dichlorophenyl)ethyl)azetidin-3-yl)methoxy)-2-fluoro-N-(methylsulfonyl)benzamide] | 7.51 nM
C[C@H](c1cc(Cl)cc(Cl)c1)N1CCC(COc2cc(F)c(C(=O)NS(C)(=O)=O)cc2C2CC2)CC1 [Example 99, (R)-5-Cyclopropyl-4-((1-(1-(3,5-dichlorophenyl)ethyl)piperidin-4-yl)methoxy)-2-fluoro-N-(methylsulfonyl)-benzamide] | 3.89 nM
CC(c1cc(Cl)cc(Cl)c1)N1CCC(COc2cc(F)c(C(=O)NS(=O)(=O)C3CC3)cc2C2CC2)CC1 (stereo not shown) [Example 102, 5-Cyclopropyl-N-(cyclopropylsulfonyl)-4-((1-(1-(3,5-dichlorophenyl)-ethyl)piperidin-4-yl)methoxy)-2-fluorobenzamide] | 2.54 nM
CC(c1cc(Cl)cc(Cl)c1)N1CCC(COc2cc(F)c(C(=O)NS(=O)(=O)N3CCC3)cc2C2CC2)CC1 (stereo not shown) [Example 103, N-(Azetidin-1-ylsulfonyl)-5-cyclopropyl-4-((1-(1-(3,5-dichlorophenyl)-ethyl)piperidin-4-yl)methoxy)-2-fluorobenzamide] | 5.24 nM

The remaining compounds from weak to strong by IC50, led by results:

IC50 | SMILES
1860 nM | C[C@H](c1ccccc1)N1CC(COc2cc(F)c(C(=O)NS(C)(=O)=O)cc2C2CC2)C1 [Example 85, (R)-5-Cyclopropyl-2-fluoro-N-(methylsulfonyl)-4-((1-(1-phenylethyl)azetidin-3-yl)methoxy)benzamide]
1060 nM | CS(=O)(=O)NC(=O)c1cc(C2CC2)c(OCC2CN([C@@H](c3ccccc3)c3ccc(S(C)(=O)=O)cc3)C2)cc1F [Example 95, (S)-5-Cyclopropyl-2-fluoro-N-(methylsulfonyl)-4-((1-((4-(methylsulfonyl)phenyl)(phenyl)methyl)azetidin-3-yl)methoxy)benzamide]
630 nM | CS(=O)(=O)NC(=O)c1cc(C2CC2)c(OCC2CN([C@H](c3ccccc3)c3cccnc3)C2)cc1F [Example 81, (R)-5-Cyclopropyl-2-fluoro-N-(methylsulfonyl)-4-((1-(phenyl(pyridin-3-yl)methyl)azetidin-3-yl)methoxy)benzamide]
408 nM | CS(=O)(=O)NC(=O)c1cc(C2CC2)c(OCC2CN([C@@H](c3ccccc3)c3cccnc3)C2)cc1F [Example 82]
173 nM | Cc1ccc(CN2CCC(COc3cc(F)c(C(=O)NS(C)(=O)=O)cc3C3CC3)CC2)cc1 [Example 93, 5-Cyclopropyl-2-fluoro-4-((1-(4-methylbenzyl)piperidin-4-yl)methoxy)-N-(methylsulfonyl)benzamide]
92.8 nM | CS(=O)(=O)NC(=O)c1cc(C2CC2)c(OCC2CCN(Cc3cccc(F)c3)CC2)cc1F [Example 88, 4-((1-(3-Fluorobenzyl)piperidin-4-yl)methoxy)-5-cyclopropyl-2-fluoro-N-(methylsulfonyl)benzamide]
42 nM | CS(=O)(=O)NC(=O)c1cc(C2CC2)c(OCC2CN(Cc3ccc(C(F)(F)F)c(F)c3)C2)cc1F [Example 76, 5-cyclopropyl-2-fluoro-4-((1-(3-fluoro-4-(trifluoromethyl)benzyl)azetidin-3-yl)methoxy)-N-(methylsulfonyl)benzamide]
22.3 nM | CC(c1cc(F)cc(F)c1)N1CCC(COc2cc(F)c(C(=O)NS(C)(=O)=O)cc2C2CC2)CC1 (stereo not shown) [Example 89, 5-Cyclopropyl-4-((1-(1-(3,5-difluorophenyl)ethyl)piperidin-4-yl)methoxy)-2-fluoro-N-(methylsulfonyl)benzamide]
9.9 nM | CS(=O)(=O)NC(=O)c1cc(C2CC2)c(OCC2CCN(c3ccccc3)CC2)cc1F [Example 79, 5-cyclopropyl-2-fluoro-N-(methylsulfonyl)-4-((1-phenylpiperidin-4-yl)methoxy)benzamide]
3.76 nM | CCS(=O)(=O)NC(=O)c1cc(C2CC2)c(OCC2CCN(C(C)c3cc(Cl)cc(Cl)c3)CC2)cc1F (stereo not shown) [Example 101, 5-Cyclopropyl-4-((1-(1-(3,5-dichlorophenyl)ethyl)piperidin-4-yl)methoxy)-N-(ethylsulfonyl)-2-fluorobenzamide]
3.1 nM | CC1(COc2cc(F)c(C(=O)NS(=O)(=O)N3CCC3)cc2C2CC2)CN(C(c2ccccc2)c2ccccc2)C1 [Example 71, N-(azetidin-1-ylsulfonyl)-4-((1-benzhydryl-3-methylazetidin-3-yl)methoxy)-5-cyclopropyl-2-fluorobenzamide]
